Laboratory results reported in patent US10239859B2, “Nitrogen-containing heterocycles as pesticides” (Bayer CropScience Aktiengesellschaft, priority 2015, dated 2019).
Like-named read-outs stand apart in the source and are kept apart here.

Legend:
Ctenocephalides felis = Ctenocephalides felis oral test; assay type: in vivo; conditions: 100 ppm in citrated cattle blood, adult cat fleas, after 2 days
Experimental: Ctenocephalides felis—Oral Test
(§1) Solvent: dimethyl sulphoxide
To produce a suitable active compound preparation, 10 mg of active compound are mixed with 0.5 ml of dimethyl sulphoxide. Dilution with citrated cattle blood gives the desired concentration.
About 20 unfed adult cat fleas (Ctenocephalides felis) are placed into a chamber which is closed at the top and bottom with gauze. A metal cylinder whose bottom end is closed with parafilm is placed onto the chamber. The cylinder contains the blood/active compound preparation, which can be imbibed by the fleas through the parafilm membrane.
After 2 days, the kill in % is determined. 100% means that all of the fleas have been killed; 0% means that none of the fleas have been killed.

Lucilia cuprina = Lucilia cuprina test; assay type: in vivo; conditions: 100 ppm, L1 larvae, after 2 days
Experimental: as §1
To produce a suitable active compound preparation, 10 mg of active compound are mixed with 0.5 ml of dimethyl sulphoxide, and the concentrate is diluted with water to the desired concentration.
About 20 L1 larvae of the Australian sheep blowfly (Lucilia cuprina) are transferred into a test vessel containing minced horsemeat and the active compound preparation of the desired concentration.
After 2 days, the kill in % is determined. 100% means that all the larvae have been killed; 0% means that no larvae have been killed.

Myzus persicae = Myzus persicae spray test (Chinese cabbage leaf discs); assay type: in vivo; conditions: after 6 days
Experimental: Myzus persicae—Spray Test
Solvent: 78 parts by weight of acetone • • 1.5 parts by weight of dimethylformamide
(§2) Emulsifier: alkylaryl polyglycol ether
(§3) To produce a suitable active compound preparation, 1 part by weight of active compound is dissolved with the stated parts by weight of solvent and made up with water containing an emulsifier concentration of 1000 ppm until the desired concentration is attained. To produce further test concentrations, the preparation is diluted with emulsifier-containing water.
Discs of Chinese cabbage leaves (Brassica pekinensis) infested by all stages of the green peach aphid (Myzus persicae) are sprayed with an active compound preparation of the desired concentration.
After 6 days, the efficacy in % is determined. 100% means that all the aphids have been killed; 0% means that no aphids have been killed.

Phaedon cochleariae = Phaedon cochleariae spray test; assay type: in vivo; conditions: 500 g/ha, larvae on Chinese cabbage leaf discs, after 7 days
Experimental: Phaedon cochleariae—Spray Test
(§4) Solvent: 78.0 parts by weight of acetone • • 1.5 parts by weight of dimethylformamide
as §2, §3
After 7 days, the efficacy in % is determined. 100% means that all the beetle larvae have been killed; 0% means that no beetle larvae have been killed.

Tetranychus urticae = Tetranychus urticae spray test, OP-resistant; assay type: in vivo; conditions: 500 g/ha, bean leaf discs, after 6 days
Experimental: Tetranychus urticae—Spray Test, OP-Resistant
as §4, §2, §3
Discs of bean leaves (Phaseolus vulgaris) infested with all stages of the greenhouse red spider mite (Tetranychus urticae) are sprayed with an active compound preparation of the desired concentration.
After 6 days, the efficacy in % is determined. 100% means that all the spider mites have been killed; 0% means that no spider mites have been killed.

[1] = log P determination by HPLC on reversed-phase C18 columns (OECD Guideline 117); assay type: physicochemical
Experimental: The log P values were determined in accordance with OECD Guideline 117 (EC Directive 92/69/EEC) by HPLC (high-performance liquid chromatography) using reversed-phase (RP) columns (C18), by the following methods:
[a] The LC-MS determination in the acidic range is effected at pH 2.7 with 0.1% aqueous formic acid and acetonitrile (contains 0.1% formic acid) as eluents; linear gradient from 10% acetonitrile to 95% acetonitrile.
[b] LC-MS determination in the neutral range is effected at pH 7.8 with 0.001 molar aqueous ammonium hydrogencarbonate solution and acetonitrile as eluents; linear gradient from 10% acetonitrile to 95% acetonitrile.

[2] = reversed-phase C18 HPLC column, acidic range, pH 2.7, 0.1% aqueous formic acid / acetonitrile, read-out: logP value (HCOOH)
[3] = reversed-phase C18 HPLC column, neutral range, pH 7.8, 0.001 molar aqueous ammonium hydrogencarbonate / acetonitrile, read-out: LogP value (neutral)

For `N#C/N=c1\ccccn1-c1ccc(C(F)(F)F)nc1` [Example 1, [1-[6-Trifluoromethylpyridin-3-yl]-2(1H)-pyridinylidene]cyanamide], the “efficacy (kill)” value (Ctenocephalides felis) was 95%, the “efficacy (kill)” value (Lucilia cuprina) was 100% and the efficacy (Myzus persicae; 500 g/ha) was 100%. For the same compound, the efficacy (Phaedon cochleariae) was 100% and the efficacy (Tetranychus urticae) was 100%.
With `N#C/N=c1\ccccn1-c1ccc(Br)nc1` [Example 2, [1-[6-Bromopyridin-3-yl]-2(1H)-pyridinylidene]cyanamide] the chromatographic logP [1, 2] was 1.07 and the efficacy (Myzus persicae; 100 g/ha) was 90%.
`Cc1ccc(-n2cccc/c2=N\C#N)cn1` [Example 3, [1-[6-Methylpyridin-3-yl]-2(1H)-pyridinylidene]cyanamide] gave a chromatographic logP [1, 2] of 0.46, an efficacy (Myzus persicae; 100 g/ha) of 90% and an efficacy (Phaedon cochleariae) of 100%.
In the case of `O=C(/C=C1\C=CC=CN1c1ccc(C(F)(F)F)nc1)C(F)(F)F` [Example 4, (3E)-3-[1-(6-Trifluoromethyl-3-pyridinyl)-2(1H)-pyridinylidene]-1,1,1-trifluoro-2-propanone], the chromatographic logP [1, 2] is reported as 2.2, the “efficacy (kill)” value (Lucilia cuprina) is reported as 100% and the efficacy (Myzus persicae; 500 g/ha) is reported as 90%.
In the case of `O=C(/N=c1\ccccn1-c1ccc(C(F)(F)F)nc1)C(F)(F)F` [Example 7], the chromatographic logP [1, 2] is reported as 2.19, the “efficacy (kill)” value (Lucilia cuprina) is reported as 95% and the efficacy (Myzus persicae; 500 g/ha) is reported as 100%.
Work on `N#C/N=c1\ccccn1-c1ccc(F)nc1` [Example 8, [1-[6-Fluoropyridin-3-yl]-2(1H)-pyridinylidene]cyanamide] yielded a chromatographic logP [1, 2] of 0.7, an efficacy (Myzus persicae; 500 g/ha) of 90% and an efficacy (Phaedon cochleariae) of 100%.
`N#C/N=c1\ccccn1-c1ccc(-n2cnc(Cl)n2)nc1` [Example 24, [1-[6-(3-Chloro-1,2,4-triazol-1-yl)pyridin-3-yl]-2-(1H)-pyridinylidene]cyanamide] showed a chromatographic logP [1, 3] of 1.39.
`O=c1ccccn1-c1ccc(C(F)(F)F)nc1` [IV-1, 6′-Trifluoromethyl-[1(2H),3′-bipyridin]-2-one] showed a chromatographic logP [1, 2] of 1.26.
`O=c1ccccn1-c1ccc(Br)nc1` [IV-2, 6′-Bromo-[1(2H), 3′-bipyridin]-2-one] showed a chromatographic logP [1, 2] of 0.95.
In the case of `N#Cc1cccn(-c2ccc(Cl)nc2)c1=O` [IV-4, 1,2-Dihydro-2-oxo-1-(6-chloropyridin-3-yl)-3-pyridinecarbonitrile], the chromatographic logP [1, 2] is reported as 1.
Compound `O=c1ccccn1-c1ccc(Cl)nc1` [IV-14, 6′-chloro-[1(2H),3′-bipyridin]-2-one] has a chromatographic logP [1, 2] of 0.67.
`O=c1ccccn1-c1ccc(-n2cnc(Cl)n2)nc1` [IV-29, 6′-(3-Chloro-1,2,4-triazol-1-yl)-[1(2H), 3′-bipyridin]-2-one] showed a chromatographic logP [1, 2] of 1.23.
For `O=c1ccccn1-c1ccc(C(F)(F)C(F)(F)C(F)(F)F)nc1` [IV-31, 6′-Heptafluoropropyl-[1(2H),3′-bipyridin]-2-one], the chromatographic logP ([1]; acidic range, pH 2.7, 0.1% aqueous formic acid / acetonitrile, read-out: logP value (HCOOH)) was 2.26.
Work on `O=c1ccccn1-c1ccc(C(F)(C(F)(F)F)C(F)(F)F)nc1` [IV-32, 6′-(1,1,1,2,3,3,3-Heptafluoropropyl)-[1(2H), 3′-bipyridin]-2-one] yielded a chromatographic logP [1, 2] of 2.4.
With `O=c1ccccn1-c1ccc(C(F)(F)C(F)(F)F)nc1` [IV-33, 6′-Pentafluoroethyl-[1(2H), 3′-bipyridin]-2-one] the chromatographic logP [1, 2] was 1.94.
`Cc1ccc(-n2ccccc2=S)cn1` [VI-1, 6′-Methyl-[1(2H),3′-bipyridine]-2-thione] gave a chromatographic logP [1, 2] of 0.51.
For `FC(F)(F)c1ccc(-n2ccccc2=S)cn1` [VI-2, 6′-trifluoromethyl-[1(2H),3′-bipyridine]-2-thione], the chromatographic logP [1, 2] was 1.7.
With `S=c1ccccn1-c1ccc(-n2cnc(Cl)n2)nc1` [VI-5, 6′-(3-Chloro-1,2,4-triazol-1-yl)-[1(2H), 3′-bipyridine]-2-thione] the chromatographic logP [1, 3] was 1.58.
In the case of “[1-[[6-(3-Trifluoromethylpyrazol-1-yl)pyridin-3-yl]-2-(1H)-pyridinylidene]cyanamide [Example 25]”, the “LogP value (neutral)” value ([1]; pH 7.8) is reported as 2.23.
